Results published in patent publication US4207308A, “Process for purifying iodinated bile acid conjugates” (priority 1977, dated 1980).

Legend:
Ab 927 [1] = experiment: Radioimmunoassay cross-reactivity / displacement of cholylglycyl-125I-histamine tracer (Specificity of Tracer and Antibody)
[2] = test system: antibodies from rabbits (anti BSA-cholylglycine conjugate), Ab 927; experiment: Antibody titer curves using cholylglycyl-125I-histamine (or 3H-cholylglycine) tracer; assay type: binding, rabbit
Experimental: Young adult male New Zealand white rabbits were immunized at multiple sites on the back at bi-weekly intervals using 1.0 ml of BSA-cholylglycine conjugate (50 μg) emulsified with an equal volume of Freund's adjuvant. Serum was harvested every 2 weeks beginning one month after the initial immunization. […] 1 mg bovine gamma globulin was included in each tube. […] The supernate (bound) was decanted into another tube and both the charcoal (free) and supernate (bound) tubes were counted in a γ-spectrometer (Elscint). Results were expressed as the bound/free (B/F) ratio. A standard curve was constructed and unknowns were quantitated from a standard curve run with each assay. Antibodies from six different rabbits were produced and tested.

Ab 927 [3] = test system: Ab 927

C[C@H](CCC(=O)NCC(=O)NCCc1c[nH]cn1)[C@H]1CC[C@H]2[C@@H]3[C@H](O)C[C@@H]4C[C@H](O)CC[C@]4(C)[C@H]3C[C@H](O)[C@]12C [cholylglycylhistamine]
Amount required for displacement relative to other bile salts (fold less) (Ab 927 [1]; FIG. 4, less than other bile salts): approximately 10 fold
affinity (in words) (Ab 927 [1]; explanation for sensitivity not rising with titer): greater affinity

Cholylglycyl-^125 I-histamine [cholylglycyl-125I-histamine]
initial B/F (bound/free ratio) ([2]; 1:100 dilution, approximately 3000 CPM cholylglycyl-125I-histamine, four antibodies): 10.5 to 14.2
Non-specific binding ([2]; CPM in supernate without antibody, unchanged as long as 6 months after iodination): 2-4%
binding of tracer ([2]; corresponds to B/F 14.2, 1:100 dilution): 93%
specificity (in words) (Ab 927 [1]): maintain a specificity toward the conjugated bile salts, particularly cholate and chenodeoxycholate conjugates

C[C@H](CCC(=O)O)[C@H]1CC[C@H]2[C@@H]3CC[C@@H]4C[C@H](O)CC[C@]4(C)[C@H]3CC[C@]12C [Lithocholic acid]
activity (Ab 927 [3]): 2%
